# Data published in patent US5258385A, “β-Carboline-derived compounds, lamchart benzodiazepine-receptor ligands, having an inverse agonist and antagonist effect on benzodiazepines, and drugs containing them” (Centre National de la Recherche Scientifique (CNRS), priority 1991, dated 1993).
# What was measured:
# benzodiazepine receptor [1] = experiment: Effect on current in xenopus oocyte expressing the benzodiazepine receptor (mRNA); type: cell-based
# Description: The effect of the lactone on the benzodiazepine receptor expressed was first expressed, using the corresponding messenger RNA, in xenopus oocyte.
# benzodiazepine receptor [2] = experiment: In vivo behavior and antagonism of diazepam sedation in mice; settings: sc
# Description: The antagonist properties of the lactone were also assessed in vivo in mice.
# benzodiazepine receptor [3] = experiment: In vitro binding to benzodiazepine receptor, displacement of 3H-flunitrazepam, rat brain cortical membranes
# [4] = anxiolytic, anti-convulsant and the like; cited from earlier work
# [5] = test system: learning and information retention; settings: man; cited from earlier work
# [6] = target: central receptors for benzodiazepines; settings: in vitro, rat brain; read-out: IC50 binding to central receptors for benzodiazepines; cited from earlier work
# [7] = test system: convulsions caused by other agents such as pentylenetetrazole; settings: cited from earlier work
# learning and memory = settings: cited from earlier work
structure (smiles),measurement,setting,value
"O=C1OC(CO)c2c1ncc1[nH]c3ccccc3c21 (stereo not drawn) [Compound No. 3, 10-Hydroxymethylbutanolide[2.3-]-β-Carboline]",effect on GABA-generated current in oocyte,benzodiazepine receptor [1]; lactone (10^6 M [sic]) simultaneously with 10^5 M (so in the source) GABA,no increase or decrease was observed in the current
same,inhibition of the increase in current generated by diazepam,"benzodiazepine receptor [1]; lactone (10^6 M [sic]), diazepam (10^6 M [sic])",inhibits substantially the increase in the current
same,receptor profile in oocyte test,benzodiazepine receptor [1]; with GABA,"behaves, in this test, like an antagonist of the benzodiazepine receptor"
same,convulsant or sedative effect in mice,benzodiazepine receptor [2]; 5 mg/kg,neither convulsant nor sedative
same,effect on behavior of mice,benzodiazepine receptor [2]; 5 mg/kg,produces no effect on their behavior
same,antagonism of sedation caused by diazepam,"benzodiazepine receptor [2]; compound 5 or 10 mg/kg, diazepam 7.5 mg/kg",completely avoided
same,affinity relative to diazepam (20 nM),benzodiazepine receptor [3]; times higher than diazepam,100 times
same,affinity relative to β-CCE (4 nM),benzodiazepine receptor [3]; times higher than β-CCE,20 times
CCOC(=O)c1ncc2[nH]c3cccc(OCc4ccccc4)c3c2c1COC [ZK 91296],properties in vivo compared with diazepam,[4],properties similar to those of diazepam in vivo
CCOC(=O)c1ncc2[nH]c3ccc(OCc4ccccc4)cc3c2c1COC [ZK 93423],properties in vivo compared with diazepam,[4],properties similar to those of diazepam in vivo
CCOC(=O)c1ncc2[nH]c3cccc(OC(C)C)c3c2c1C [ZK 93426],learning and information retention,[5],improve learning and information retention in man
"CCOC(=O)c1cc2c(cn1)[nH]c1ccccc12 [β-CCE, ethyl ester of β-carboline-3-carboxylic acid]",IC50,[6],4 nM
same,in vivo pharmacological effects compared with benzodiazepines,[7]; in vivo,opposed to those of benzodiazepines
same,proconvulsant effect,[7]; mice,proconvulsant in mice which facilitates the convulsions caused by other agents such as pentylenetetrazole
COC(=O)c1cc2c(cn1)[nH]c1ccccc12 [β-CCM],effect on learning and memory,learning and memory; in vivo,positive effect on learning and memory
same,convulsant activity,learning and memory; prevented testing in man,highly convulsant activity
